Experimental data taken from article PMC2762193 (Journal of the American Chemical Society, 2009).

Biological target: wtTaq polymerase (Thermus aquaticus, UniProt P19821)
Assay: gel-based steady-state single nucleotide incorporation, […]-labelled primer
Type: biochemical
Details: 1 x Taq buffer, 60 °C

Chain of wtTaq polymerase (P19821 whole entry): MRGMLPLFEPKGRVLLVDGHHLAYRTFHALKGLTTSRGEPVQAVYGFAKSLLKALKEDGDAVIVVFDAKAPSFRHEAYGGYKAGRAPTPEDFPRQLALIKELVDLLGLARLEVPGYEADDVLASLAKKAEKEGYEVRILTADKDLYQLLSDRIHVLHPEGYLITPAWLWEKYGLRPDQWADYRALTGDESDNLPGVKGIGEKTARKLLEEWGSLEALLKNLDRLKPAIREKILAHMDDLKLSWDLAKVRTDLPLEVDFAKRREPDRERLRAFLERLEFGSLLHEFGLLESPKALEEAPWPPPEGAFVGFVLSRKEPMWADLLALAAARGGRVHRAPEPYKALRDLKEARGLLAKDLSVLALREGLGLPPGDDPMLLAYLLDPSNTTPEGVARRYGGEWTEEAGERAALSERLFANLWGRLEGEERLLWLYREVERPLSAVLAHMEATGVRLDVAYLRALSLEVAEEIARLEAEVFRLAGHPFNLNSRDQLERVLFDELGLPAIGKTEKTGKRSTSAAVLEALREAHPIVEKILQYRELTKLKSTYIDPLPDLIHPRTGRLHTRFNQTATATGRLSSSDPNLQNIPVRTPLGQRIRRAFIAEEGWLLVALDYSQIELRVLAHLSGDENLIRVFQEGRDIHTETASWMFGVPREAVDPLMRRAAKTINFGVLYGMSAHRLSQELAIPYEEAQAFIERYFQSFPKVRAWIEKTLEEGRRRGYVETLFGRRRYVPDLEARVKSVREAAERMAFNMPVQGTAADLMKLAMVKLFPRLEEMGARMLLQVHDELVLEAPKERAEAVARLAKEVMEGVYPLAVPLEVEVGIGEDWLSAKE

SMILES: Nc1nc2c(ncn2[C@H]2C[C@H](O)[C@@H](COP(=O)(O)OP(=O)(O)OP(=O)(O)O)O2)c(=O)[nH]1 [dGTP]
- Km (opposite template dC): incorporation of dTTP opposite dA or dGTP opposite dC

SMILES: Cc1cn([C@H]2C[C@H](O)[C@@H](COP(=O)(O)OP(=O)(O)OP(=O)(O)O)O2)c(=O)[nH]c1=O [dTTP]
- Km (opposite template dA): incorporation of dTTP opposite dA or dGTP opposite dC

SMILES: Nc1ncnc2c1ncn2[C@H]1C[C@H](O)[C@@H](COP(=O)(O)OP(=O)(O)OP(=O)(O)O)O1 [dATP]
- Km (opposite template d5NI or d5NIC): incorporation of dNTPs opposite template d5NIC
